Measured values reported in US6545006B1, “Process for obtaining L-dihydroorotic acid and use thereof” (Aventis Pharma Deutschland GmbH, priority 1997, dated 2003).

Columns and labels:
Assay type in all cases: physicochemical
[1] = Stability of L-DHO in Jurkat cell lysates at −20° C.; conditions: Jurkat cells
Description: (§1) A standard stock solution was prepared by dissolving 1 mg L-DHO in 1 ml water. Aliquots of 400 μl were frozen at −20° C. Stability of these solutions was guaranteed for at least 4 weeks. Defined amounts of the stock solution were added to the cell lysates and to human or rat serum and assayed to evaluate the linearity between the increase of the signal and the spiked L-DHO concentration. The precision and the accuracy of the method were investigated by using quality control (QC) samples with an L-DHO content in the low, the middle and the high concentration range of the signal/concentration linearity curve.
Cells were suspended in a defined medium volume and cell density of samples was determined via vital microscopy using Eosin. About 10×10^6 cells were removed, pelleted by 5 minute-centrifugation at 350×g and the supernatant was discarded. Lysis of the cells was done by resuspending the cell pellet in 500 μl 1.2 M HClO4. This mixture was transferred in 2.0 ml Eppendorf safe-lock caps and the protein was precipitated by 2 minutes high speed centrifugation. The supernatant was completely removed, transferred in glass vials and after addition of 500 μl chloroform thoroughly mixed by 2 minutes vortexing. Cellular lipids were extracted by chloroform following 10 minutes centrifugation (1502 g) at 10° C. The purified supernatant was collected in 2 ml Eppendorf-caps and stored at −20° C. until further used. For the HPLC analysis 100 μl of this supernatant were neutralized with 30 μl 6 M KOH. After shaking for about 5 sec the samples were stored on ice for 30 min. Thereafter they were centrifuged for 5 min at 15 000 rpm. From the clear supernatant 20 μl were used for the HPLC analysis.
(§2) L-DHO was stable under the above mentioned conditions in Jurkat cells over a period of at least 4 weeks. […] For these reasons it can be stated only that in rat and human serum samples L-DHO is definitely stable only for at least 1 week.

[2] = Stability of L-DHO in rat serum at −20° C.; conditions: for Residue (%) / concentration 1 5 μg/ml / Concentration 2 20 μg/ml: Rat serum
Description: as §1
(§3) In order to reduce the protein content […] serum were added to a Microcon filter (10 000 D, model 10, code 42407, Amicon) and centrifuged for 30 min at 13 000 rounds per minute (rpm). The flow through consisted of about 150 μl and contains the analyte L-DHO. From this liquid 20 μl were used for HPLC analysis.
as §2

[3] = Stability of L-DHO in human serum at −20° C.; conditions: for Residue (%) / concentration 1 5 μg/ml / Concentration 2 20 μg/ml: Human serum
Description: as §1, §3, §2

[4] = Stability of L-DHO for 18 h at 14° C. in Jurkat cell lysates; conditions: for Residue (%) / concentration 1 20 μg/ml / Concentration 2 100 μg/ml: Jurkat cells, 14° C.
Description: (§4) In order to simulate the conditions of the samples when they are waiting in the autosampler for the actual analysis the stability during 18 h at 14° C. was determined. For that reason the cell lysates were spiked and then treated with 30 μl 6 M KOH/100 μl lysate before the start of the analysis. Correspondingly, the serum samples were spiked and then deproteinized as described in 1.5.2. […] In serum samples the analyte is stable under these conditions. For these reasons only so many HPLC samples were prepared that the maximal length of stay in the autosampler was less than 18 h.

[5] = Stability of L-DHO for 18 h at 14° C. in rat serum; conditions: for concentration 1 5 μg/ml / Residue (%) / Concentration 2 20 μg/ml: Rat serum, 14° C.
Description: as §4

[6] = Stability of L-DHO for 18 h at 14° C. in human serum; conditions: for Residue (%) / concentration 1 5 μg/ml / Concentration 2 20 μg/ml: Human serum, 14° C.
Description: as §4

[7] = Stability of L-DHO standard stock solution; conditions: 1 mg L-DHO in 1 ml water, frozen at −20° C.
Description: as §1

Residue (%) ([1]; 20 μg/ml, 0 days): 100%
concentration 1 20 μg/ml ([1]; 20 μg/ml, 0 days): 19340 ng/mL
Residue (%) ([1]; 20 μg/ml, 7 days): 99.7%
concentration 1 20 μg/ml ([1]; 20 μg/ml, 7 days): 19280 ng/mL
Residue (%) ([1]; 20 μg/ml, 29 days): 103.3%
concentration 1 20 μg/ml ([1]; 20 μg/ml, 29 days): 19980 ng/mL
Concentration 2 100 μg/ml ([1]; 100 μg/ml, 0 days): 100050 ng/mL
Residue (%) ([1]; 100 μg/ml, 0 days): 100%
Concentration 2 100 μg/ml ([1]; 100 μg/ml, 7 days): 99090 ng/mL
Residue (%) ([1]; 100 μg/ml, 7 days): 99.0%
Concentration 2 100 μg/ml ([1]; 100 μg/ml, 14 days): 115320 ng/mL
Residue (%) ([1]; 100 μg/ml, 14 days): 115.3%
Concentration 2 100 μg/ml ([1]; 100 μg/ml, 29 days): 99350 ng/mL
Residue (%) ([1]; 100 μg/ml, 29 days): 99.3%
period over which L-DHO was stable ([1]; 2-3 freezing/thawing cycles): at least 4 weeks
Residue (%) ([2]; 5 μg/ml, Time 0 (h)): 100%
concentration 1 5 μg/ml ([2]; 5 μg/ml, Time 0 (h)): 4300 ng/mL
Residue (%) ([2]; 5 μg/ml, Time 7 (h)): 105.1%
concentration 1 5 μg/ml ([2]; 5 μg/ml, Time 7 (h)): 4520 ng/mL
Residue (%) ([2]; 5 μg/ml, Time 14 (h)): 111.9%
concentration 1 5 μg/ml ([2]; 5 μg/ml, Time 14 (h)): 4810 ng/mL
Residue (%) ([2]; 5 μg/ml, Time 21 (h)): 129.1%
concentration 1 5 μg/ml ([2]; 5 μg/ml, Time 21 (h)): 5550 ng/mL
Concentration 2 20 μg/ml ([2]; 20 μg/ml, Time 0 (h)): 19940 ng/mL
Residue (%) ([2]; 20 μg/ml, Time 0 (h)): 100%
Concentration 2 20 μg/ml ([2]; 20 μg/ml, Time 7 (h)): 19620 ng/mL
Residue (%) ([2]; 20 μg/ml, Time 7 (h)): 98.4%
Concentration 2 20 μg/ml ([2]; 20 μg/ml, Time 14 (h)): 20930 ng/mL
Residue (%) ([2]; 20 μg/ml, Time 14 (h)): 105.0%
Concentration 2 20 μg/ml ([2]; 20 μg/ml, Time 21 (h)): 22330 ng/mL
Residue (%) ([2]; 20 μg/ml, Time 21 (h)): 112.2%
period over which L-DHO is definitely stable ([2]; rat serum): at least 1 week
Residue (%) ([3]; 5 μg/ml, Time 0 (h)): 100%
concentration 1 5 μg/ml ([3]; 5 μg/ml, Time 0 (h)): 4670 ng/mL
Residue (%) ([3]; 5 μg/ml, Time 8 (h)): 103.0%
concentration 1 5 μg/ml ([3]; 5 μg/ml, Time 8 (h)): 4810 ng/mL
Residue (%) ([3]; 5 μg/ml, Time 65 (h)): 104.3%
concentration 1 5 μg/ml ([3]; 5 μg/ml, Time 65 (h)): 4870 ng/mL
Concentration 2 20 μg/ml ([3]; 20 μg/ml, Time 0 (h)): 20220 ng/mL
Residue (%) ([3]; 20 μg/ml, Time 0 (h)): 100%
Concentration 2 20 μg/ml ([3]; 20 μg/ml, Time 8 (h)): 20380 ng/mL
Residue (%) ([3]; 20 μg/ml, Time 8 (h)): 100.8%
Concentration 2 20 μg/ml ([3]; 20 μg/ml, Time 65 (h)): 23200 ng/mL
Residue (%) ([3]; 20 μg/ml, Time 65 (h)): 114.7%
period over which L-DHO is definitely stable ([3]; human serum): at least 1 week
Residue (%) ([4]; 20 μg/ml, 0 h): 100%
concentration 1 20 μg/ml ([4]; 20 μg/ml, 0 h): 19960 ng/mL
Residue (%) ([4]; 20 μg/ml, 18 h): 93.2%
concentration 1 20 μg/ml ([4]; 20 μg/ml, 18 h): 18600 ng/mL
Concentration 2 100 μg/ml ([4]; 100 μg/ml, 0 h): 100020 ng/mL
Residue (%) ([4]; 100 μg/ml, 0 h): 100%
Concentration 2 100 μg/ml ([4]; 100 μg/ml, 18 h): 97430 ng/mL
Residue (%) ([4]; 100 μg/ml, 18 h): 97.4%
reduction of L-DHO content ([4]; cells, 18 h at 14° C.): ≤ 7%
concentration 1 5 μg/ml ([5]; 5 μg/ml, 0 h): 4610 ng/mL
Residue (%) ([5]; 5 μg/ml, 18 h): 107.6%
concentration 1 5 μg/ml ([5]; 5 μg/ml, 18 h): 4960 ng/mL
Concentration 2 20 μg/ml ([5]; 20 μg/ml, 0 h): 19990 ng/mL
Residue (%) ([5]; 20 μg/ml, 0 h): 100%
Concentration 2 20 μg/ml ([5]; 20 μg/ml, 18 h): 20530 ng/mL
Residue (%) ([5]; 20 μg/ml, 18 h): 102.7%
stability of the analyte in serum samples ([5]; rat serum, 18 h at 14° C.): stable
Residue (%) ([6]; 5 μg/ml, 0 h): 100%
concentration 1 5 μg/ml ([6]; 5 μg/ml, 0 h): 3340 ng/mL
Residue (%) ([6]; 5 μg/ml, 18 h): 100.9%
concentration 1 5 μg/ml ([6]; 5 μg/ml, 18 h): 3370 ng/mL
Concentration 2 20 μg/ml ([6]; 20 μg/ml, 0 h): 18780 ng/mL
Residue (%) ([6]; 20 μg/ml, 0 h): 100%
Concentration 2 20 μg/ml ([6]; 20 μg/ml, 18 h): 22090 ng/mL
Residue (%) ([6]; 20 μg/ml, 18 h): 117.6%
stability of the analyte in serum samples ([6]; human serum, 18 h at 14° C.): stable
Stability of standard stock solution [7]: at least 4 weeks
SMILES: O=C1C[C@@H](C(=O)O)NC(=O)N1 [L-DHO, L-dihydroorotic acid]
